Tested on: Penicillium sp. CBS 109899 phytase (wild type, SEQ ID NO: 3), in crude fungal extract
Assay: Michaelis-Menten constants of the phytase contained in the crude fungal extract (phosphate release from sodium phytate, method of Shimizu)
Type: biochemical
Conditions: substrate sodium phytate, 250 mM acetate buffer with 1 mM CaCl2, pH 5.5, 37° C.
Method: The measurement of phytase activity is based on the method of Shimizu (1992, Biosci. Biotech. Biochem. 56(8), 1266-1269). The principle of this method consists in measuring the amount of inorganic phosphate released during the enzymatic reaction of the phytase with its substrate (solution of sodium phytate prepared at 10 g/l in a 250 mM acetate buffer containing 1 mM CaCl2, pH 5.5). The amount of inorganic phosphate released is measured by reaction of this phosphate with a chromogenic reagent (1 volume of iron sulfate at 10.8% mixed extemporaneously with 4 volumes of ammonium molybdate at 0.012M H2SO4). This reaction leads, in highly acidic medium, to the formation of a colored phosphomolybdate complex (in the presence of Fe^2+), and the amount of complex formed is quantified by measuring the absorbance at 700 nm of the colored solution generated, on a spectrophotometer.
Three reactions are carried out in parallel in order to produce enzymatic kinetics at 10, 20 and 30 minutes at 37° C. […] The sample interference is determined by adding the 20% trichloroacetic acid and then the phytic acid to the crude extract, which may or may not be diluted. […] The intensity of the blue coloration is measured by spectrophotometry at 700 nm. […] The enzymatic activity is determined using the rate of appearance of the phosphate in the course of the enzymatic kinetics. […]

## O=P(O)(O)O[C@H]1[C@H](OP(=O)(O)O)[C@@H](OP(=O)(O)O)[C@H](OP(=O)(O)O)[C@@H](OP(=O)(O)O)[C@H]1OP(=O)(O)O [sodium phytate]
  Vmapp (maximum reaction rate): 1.425 μmol of phosphate released per minute and per mg of sample
Substrate concentrations and incubation times modified, read-out: Kmapp
  Km: 550 µM

From patent publication US7335501B1, “Phytases and methods for producing these phytases” (Adisseo France S.A.S., priority 2001, dated 2008)
